From article PMC12022980, “Rational Design of PROTAC Linkers Featuring Ferrocene as a Molecular Hinge to Enable Dynamic Conformational Changes” (Journal of the American Chemical Society, 2025) come the findings set out here.

Data set [1] can be described thus: ChromLogD (chromatographic). The format is physicochemical. The note with it: HPLC on Hypersil GOLD-C18 column, pH 7.4. The protocol:
(§1) For the permeabilised-cell assay, 10 µL of digitonin was added, and plates were incubated in darkness for 5 minutes to allow permeabilisation. In each well 10 µL of the 10x PROTAC and vehicle control dilutions were dispensed. A 100x NanoBRET tracer solution (50 µM for VHL permeabilised-cell assay) was prepared with 100% DMSO, then diluted to a 20x solution with tracer dilution buffer. A 5 µL volume of tracer was dispensed into each well at a final concentration of 0.5 µM, and the plate was mixed at 300 RPM for 15 seconds. Finally, 50 µL of a 3x substrate solution (8.8 µL NanoBRET Nano-Glo substrate and 3,500 µL Opti-MEM) was added, and plates were incubated for 1 minute at room temperature before reading on a GloMax Discover as […]
HiBiT Lytic Assay with Zosuquidar Co-treatment
A modified HiBiT lytic assay was used to assess the activity of zosuquidar on the BET degradation. […]
Luminescence was measured using the GloMax® Multiplex Luminescence and Fluorescence Protocol for 96-well plates. The luminescence signal for each well was normalised to the fluorescence signal and further normalised to the mean values from iPrOH-treated controls, then expressed as a ratio relative to the vehicle control. Curve fitting and DC50 values were determined in GraphPad Prism v.10.0.3 using nonlinear regression with a three-parameter logistic model to calculate DC50 values.
The stock solution of each test item was prepared from a 10mM stock in iPrOH, which was further diluted 1:50 with […] to obtain a 0.2 mM solution (4 µL of the test item stock solution is diluted with 196 µL DMSO) in insert vials. The samples were analysed on an HPLC system equipped with a HPLC-ThermoScientific Hypersil GOLD-C18 column (2.1 x 50 mm, 1.9 µm) and by MS detection using electrospray ionization (ESI) and Atmospheric Pressure Chemical Ionization (APCI) on a Shimadzu LCMS 2050. […]
(§2) of 1 mL/min and a column temperature of 40 °C. […] Data were analysed with Shimadzu Open Solution Data Browser to obtain the RTs of the peak for each individual compound and standards. […]

The nature of data set [2]: Kinetic solubility in phosphate buffer and FeSSIF. In kind it is physicochemical. As to conditions: kinetic from iPrOH stock. Here is the method:
Solubility in Phosphate Buffer and Fed State Simulated Intestinal Fluid (FeSSIF) 8 µL of reference or test compound stock solution (10 mM in iPrOH) was added to 792 μL of 100 mM phosphate buffer (pH 7.4) or FeSSIF (pH 5.8). The resulting mixture was shaken for 1 h (1000 rpm) at room temperature and then centrifuged for 10 min (12 000 rpm) to remove the undissolved particles. The supernatant was collected and diluted 10 times and 100 times separately with 100 mM phosphate buffer or FeSSIF. Five microliters of the supernatant samples (no diluted, 10 times diluted, 100 times diluted) were mixed with 95 μL of acetonitrile (containing internal standard) separately before injecting into LC-MS/MS for analysis. […]

Data set [3] in a line: LogD7.4 shake flask (octanol/phosphate buffer). In kind it is physicochemical. The note with it: octanol/potassium phosphate buffer, pH 7.4.
Text: The modulation of lipophilicity could play a critical role in optimizing PROTACs. We thus utilized traditionally measured LogD values from shake flask experiments alongside chromatographically assessed ChromLogD values.[72] […] By incorporating ferrocene, permeability may be improved due to the feature of promoting IMHB-mediated compact conformations, while also balancing the lipophilicity of the polar ligand/PEG linkers. However, while sufficient lipophilicity is required for passive uptake over the cell membrane, it may also drive poor aqueous solubility.[73]
as §1
HiBiT Lytic Assay with Zosuquidar Co-treatment […]
Luminescence was measured using the GloMax® Multiplex Luminescence and Fluorescence Protocol for 96-well plates. The luminescence signal for each well was normalised to the fluorescence signal and further normalised to the mean values from iPrOH-treated controls, then expressed as a ratio relative to the vehicle control. Curve fitting and DC50 values were determined in GraphPad Prism v.10.0.3 using nonlinear regression with a three-parameter logistic model to calculate DC50 values. […]
as §2
ChromLogD values for the compounds were then calculated based on the regression curve. […]

Data set [4] is described as follows: Mouse liver microsome stability. The format is in vitro ADME. As to conditions: liver microsomes; for CLint scaled at 1 µM: pH 7.4; for half-life at 1 µM: pH 7.4, read-out: stability T1/2 in mouse microsome. The protocol:
Mouse Liver Microsome Stability
Testing compound (1.5 μL) or reference compound (500 μM in 5% iPrOH and 95% acetonitrile) was mixed with 18.75 μL of 20 mg/mL liver microsome (Corning) and 479.75 μL of potassium phosphate buffer (0.1 M potassium phosphate buffer, 1 mM EDTA, pH 7.4). The reaction was started by mixing 30 μL of the above mixture (prewarmed to 37 °C) with 15 μL of 6 mM NADPH stock solution (prewarmed to 37 °C). After incubating for 5, 15, 30, or 45 min, 135 μL of acetonitrile containing internal standard was added to stop the reaction. For 0 min, the compound and microsome mixture were mixed with acetonitrile first before adding NADPH. After quenching, the reaction mixture was centrifuged, and the supernatant was taken and diluted for LC-MS

The mark [5] stands for this setting: FeSSIF pH 5.8, read-out: kinetic solubility FeSSIF (pH 5.8).
[6] abbreviates: phosphate buffer, aqueous buffer, PBS pH 7.4, read-out: kinetic solubility PBS (pH 7.4).

SMILES strings stand for the structures. In brackets after ≈: the same amount, converted by molar mass. Where two headings read alike, the source gives them in different places.

In the case of `Cc1ncsc1-c1ccc(CNC(=O)[C@@H]2C[C@@H](O)CN2C(=O)[C@@H](NC(=O)CCCCCOCCOCCCCCC(=O)Nc2cccc3c2C(=O)N(C2CCC(=O)NC2=O)C3=O)C(C)(C)C)cc1` (stereo partly drawn) [14a], in data set [1], the chromatographic logD (as a rule, a lipophilicity value derived from retention on a column) turned out to be 3.7. For the same compound, the solubility (kinetic) (commonly solubility judged after dilution from a stock solution rather than from solid) at 1 h in data set [2] (setting [5]) is 59.5 µM (≈ 57 µg/mL). Besides, the solubility (kinetic) at 1 h in data set [2] (setting [6]) amounted to 8.7 µM (≈ 8.34 µg/mL). Further, the logD (usually lipophilicity at a set pH, counting ionised and neutral species) in data set [3] is 3.3. In data set [4], the intrinsic clearance (CLint scaled) (as a rule, a measure of how fast metabolising enzymes remove a compound, apart from limits set by blood flow) at 1 µM came out at 5090 mL/min/kg and the half-life at 1 µM worked out at 1.1 min.

In the case of `Cc1ncsc1-c1ccc(CNC(=O)[C@@H]2C[C@@H](O)CN2C(=O)[C@@H](NC(=O)COCCOCCOCCOCCOCCOCC(=O)N[C@H](C(=O)N2C[C@H](O)C[C@H]2C(=O)NCc2ccc(-c3scnc3C)cc2)C(C)(C)C)C(C)(C)C)cc1` [CM11], the chromatographic logD in data set [1] was 3.2. The solubility (kinetic) at 1 h in data set [2] (setting [5]) came out at 38.6 µM (≈ 45.5 µg/mL). In addition, in data set [2] (setting [6]), the solubility (kinetic) at 1 h stood at 58.2 µM (≈ 68.6 µg/mL). The compound also displayed a logD in data set [3] of 2.9. Besides, in data set [4], the CLint scaled at 1 µM was 212 mL/min/kg and the half-life at 1 µM stood at 25.8 min.
